Reference: patent US11591326B2, “Inhibitors of protein arginine methyltransferase 5 (PRMT5), pharmaceutical products thereof, and methods thereof” (PHARMABLOCK SCIENCES (NANJING), INC., priority 2018, dated 2023)
Read-outs that look alike come from different tables or passages of the source.

Experiments:
Format in all cases: cell-based
Huh7 = experiment: Liver cancer panel proliferation inhibition, Huh7; conditions: Homo sapiens
Experimental: (§1) Inhibitory ability of compounds synthesized on the proliferation of three panels of cancer cell lines, including 5 breast cancer, 6 liver cancer, and 3 lung cancer cell lines were evaluated. Exponentially growing cells were seeded in the media of choice at various cell densities in 384-well plates with 20 ul per well and incubated overnight at 37° C., 5% CO2 incubator. Compounds were prepared as 10-point, 3-fold serial dilutions in DMSO, beginning at 6 mM. 1 μl of DMSO solutions from the compound stock plates were added to 99 ul of cell media (final top concentration of compound in the assay was 30 uM and the final concentration of DMSO was 0.5%). 20 μL of compound solutions in media were added to each well of plates with cells seeded. After adding compound solutions, assay plates were incubated for 8 and 12 days, respectively, at 37° C., 5% CO2. During this incubation period, cell media was changed every 4 days. After removing old media from cell plates, 40 ul of media with testing compounds dissolved, which were prepared by adding 1 ul of compound DMSO serial solutions to 199 ul of cell media, were added to the assay plates with the same layout as they were initially prepared. After 8 or 12 days, cell viability was measured using the CellTiter-Glo assay kit from Promega (Madison, Wis., USA) by quantitating the ATP present in the cell cultures. 20 μL of CellTiter-Glo reagent was added to each well of the cell plates. Luminescence was read after 10 minute of incubation with the Envision multiple plate reader from PerkinElmer (Waltham, Mass., USA). The concentrations of compounds inhibiting cell viability by 50% (IC50 values) were determined using a sigmoidal dose-response model (variable slopes, four parameters) in Prism 7 (La Jolla, Calif., USA).

HCC827 = experiment: Lung cancer panel proliferation inhibition, HCC827; conditions: Homo sapiens
Experimental: as §1

Glioblastoma U-251 cell = experiment: Cell proliferation inhibition, U-251 (CellTiter-Glo); conditions: Homo sapiens, U-251, incubated for 12 days (read after 8 or 12 days)
Description: Materials and Cell Lines: Z-138, U251, and MIA PaCa2 cells were purchased from ATCC (American Type Culture Collection, Manassas, Va.) and Chinese Academy of Science (Shanghai, China). Iscove's Modified Dulbecco's Medium (IMDM), Dulbecco's Modified Eagle Medium (DMEM), penicillin-streptomycin, heat inactivated fetal bovine serum (FBS), and horse serum was purchased from ThermoFisher, Waltham, Mass., USA. Corning 96- and 384-well cell culture plates were purchased from ThermoFisher, Waltham, Mass., USA. Cell-Titer Glo® was purchased from Promega Corporation, Madison, Wis., USA.
In order to evaluate the inhibitory ability of compounds synthesized on the proliferation of the Glioblastoma U-251 cell, exponentially growing cells were seeded in the cell culture media of DMEM with 10% FBS and 1% penicillin-streptomycin at a concentration of 10000 cells/ml in a 384-well plate with 20 ul per well and incubated overnight at 37° C., 5% CO2 incubator. Compounds were prepared as 10-point, 3-fold serial dilutions in DMSO, beginning at 6 mM. 1 μl of DMSO solutions from the compound stock plates were added to 99 ul of cell culture media (final top concentration of compound in the assay was 30 uM and the final concentration of DMSO was 0.5%). 20 μL of compound solutions in media were added to each well of U-251 cell plates. After adding compound solutions, assay plates were incubated for 12 days at 37° C., 5% CO2. During this incubation period, cell culture media with freshly dissolved testing compounds was changed every 4 days. After removing old media from cell plates, 40 ul of media with testing compounds dissolved, which were prepared by adding 1 ul of compound DMSO serial solutions to 199 ul of cell media, were added to the assay plates with the same layout as they were initially prepared. After 8 or 12 days, cell viability was measured using the CellTiter-Glo assay kit from Promega (Madison, Wis., USA) by quantitating the ATP present in the cell cultures. 20 μL of CellTiter-Glo reagent was added to each well of the cell plates. Luminescence was read after 10 minute of incubation with the Envision multiple plate reader from PerkinElmer (Waltham, Mass., USA). The concentrations of compounds inhibiting cell viability by 50% (IC50 values) were determined using a sigmoidal dose-response model (variable slopes, four parameters) in Prism 7 (La Jolla, Calif., USA).

BT474 = experiment: Breast cancer panel proliferation inhibition, BT474; conditions: Homo sapiens
Experimental: as §1

MCF-7 = experiment: Breast cancer panel proliferation inhibition, MCF-7; conditions: Homo sapiens
Experimental: as §1

Huh1 = experiment: Liver cancer panel proliferation inhibition, Huh1; conditions: Homo sapiens
Experimental: as §1

Hep G2 = experiment: Liver cancer panel proliferation inhibition, Hep G2; conditions: Homo sapiens
Experimental: as §1

MDA-MB-453 = experiment: Breast cancer panel proliferation inhibition, MDA-MB-453; conditions: Homo sapiens
Experimental: as §1

[1] = Huh-7, 192 h, Huh7, 8 days, read-out: IC50 (μM) 8 days
[2] = Huh-7, 288 h, Huh7, 12 days, read-out: IC50 (μM) 12 days
[3] = 192 h, HCC827, 8 days, read-out: IC50 (μM) 8 days
[4] = 288 h, HCC827, 12 days, read-out: IC50 (μM) 12 days
[5] = BT-474, 192 h, BT474, 8 days, read-out: IC50 (μM) 8 days
[6] = BT-474, 288 h, BT474, 12 days, read-out: IC50 (μM) 12 days
[7] = MCF7, 192 h, MCF-7, 8 days, read-out: IC50 (μM) 8 days
[8] = MCF7, 288 h, MCF-7, 12 days, read-out: IC50 (μM) 12 days
[9] = HuH-1, 192 h, Huh1, 8 days, read-out: IC50 (μM) 8 days
[10] = HuH-1, 288 h, Huh1, 12 days, read-out: IC50 (μM) 12 days
[11] = HepG2, 192 h, Hep G2, 8 days, read-out: IC50 (μM) 8 days
[12] = HepG2, 288 h, Hep G2, 12 days, read-out: IC50 (μM) 12 days
[13] = 192 h, MDA-MB-453, 8 days, read-out: IC50 (μM) 8 days
[14] = 288 h, MDA-MB-453, 12 days, read-out: IC50 (μM) 12 days

IC50 (Huh7; [1]) [µM] | IC50 (Huh7; [2]) [µM] | IC50 (HCC827; [3]) [µM] | IC50 (HCC827; [4]) [µM] | IC50 (Glioblastoma U-251 cell) [µM] | IC50 (BT474; [5]) [µM] | IC50 (BT474; [6]) [µM] | IC50 (MCF-7; [7]) [µM] | IC50 (MCF-7; [8]) [µM] | IC50 (Huh1; [9]) [µM] | IC50 (Huh1; [10]) [µM] | IC50 (Hep G2; [11]) [µM] | IC50 (Hep G2; [12]) [µM] | IC50 (MDA-MB-453; [13]) [µM] | IC50 (MDA-MB-453; [14]) [µM] | SMILES
0.28 | 0.072 | 0.19 | 0.11 | 0.097 | 0.11 | 0.057 | 0.016 | 0.026 | 0.44 | 0.041 | 2.87 | 0.77 | 0.28 | 0.19 | CC(=O)N1CCC(Nc2ccc3c(c2)C(=O)N(C[C@H](O)CN2CCc4ccccc4C2)CC3)CC1 [Compound 24a, (R)-7-((1-acetylpiperidin-4-yl)amino)-2-(3-(3,4-dihydroisoquinolin-2(1H)-yl)-2-hydroxypropyl)-3,4-dihydroisoquinolin-1(2H)-one]
0.26 | 0.092 | 0.16 | 0.089 | 0.293 | 0.041 | 0.03 | 0.025 | 0.021 | 0.54 | 0.075 | 3.09 | 0.97 | 0.14 | 0.06 | CC(=O)N1CCC(Nc2ccc3c(c2)C(=O)N(C[C@H](O)CN2CCc4ccccc4C2)CCO3)CC1 [Compound 52a, (R)-7-((1-acetylpiperidin-4-yl)amino)-4-(3-(3,4-dihydroisoquinolin-2(1H)-yl)-2-hydroxypropyl)-3,4-dihydrobenzo[f][1,4]oxazepin-5(2H)-one]
0.23 | 0.073 | 0.34 | 0.5 | 0.17 | 0.14 | 0.056 |  | 0.029 | 1.92 | 0.085 | > 10 | 3.26 | 1.22 | 0.16 | CC(=O)N1CCC(Nc2cc(C(=O)NC[C@H](O)CN3CCc4ccccc4C3)ncn2)CC1 [Compound C3, reference compound]
